Reference: patent US8741889B2, “Method of treating non-small cell lung cancer and colon cancer with gamma-secretase inhibitor” (Hoffmann-La Roche Inc, priority 2008, dated 2014)

Key:
[1] = target: γ-secretase enzyme complex (Homo sapiens, UniProt P49768)
Description: Multiple in vitro assays were utilized to characterize the potency and selectivity of compound (1). The primary in vitro assay uses cell-free membrane preparations to provide the -secretase enzyme complex as an in vitro assay. […] The cellular processing of APP is measured using an ELISA-based readout. HEK293 cells have been engineered to over-express APP. Processing is measured by an ELISA-based quantitation of the A 1-40 secretase product. Cellular Notch inhibitory activity is measured using HEK293 cell line stably expressing a truncated human Notch 1 fused in its intracellular domain to a VP16/[…] transcriptional activator, which drives a firefly luciferase gene Inhibition of Notch processing produces a reduction in luciferase reporter activity as measured by its chemo luminescence.

[2] = test system: MiaPaca2 human pancreatic carcinoma xenografts; experiment: Antitumor efficacy in MiaPaca2 pancreatic xenografts in nude mice; assay type: in vivo; conditions: day 37
Description: Female (athymic nu/nu) nude mice were obtained from Charles River Laboratories (Wilmington, Mass.), while female SCID-beige mice were purchased from Taconic (Germantown, N.Y.). Mice were used when they were approximately 8-12 weeks old (nudes) or 8-10 weeks old (SCID-beige), and weighed approximately 23-25 grams. The health of all animals was determined daily by gross observation of experimental animals and by the analyses of blood samples of sentinel animals that were housed on the shared shelf racks. All animals were allowed to acclimate and recover from any shipping related stress for a minimum of 72 hours prior to experimental use. Autoclaved water and irradiated food [5058-ms Pico chow (mouse) Purina, Richmond, Ind.] were provided ad libitum, and the animals were maintained on a 12 hour light and dark cycle. Cages, bedding and water bottles were autoclaved before use and were changed weekly. MiaPaca2, AsPC1 and BxPC3 human pancreatic carcinoma cells were purchased from ATCC (Manassas, Va.). BxPC3 and AsPC1 cells were grown in RPMI medium and MiaPaca2 cells were grown in Dulbecco's Modified Essential Medium (DMEM). All culture media were supplemented with 10% (v/v) FBS and 1% (v/v) […]. […] SCID-biege mice were implanted se with 5×10^6 BxPC3 cells in a 1:1 mixture of matrigel:PBS in a volume of 0.2 ml per mouse in the right hind flank on May 22, 2007. […] Formulated compound and vehicle were stored at 4° C. and prepared weekly. The suspension was mixed vigorously prior to administration. Gemcitabine (Gemzar®, Eli Lilly and Company, Indianapolis, Ind., USA) was reconstituted with sterile saline to yield a stock solution of 38 mg/ml for the entire 3-4 week study. […] Nude mice implanted with MiaPaca2 or AsPC1 xenografts were randomized on day 17 and day 9 post cell implant, respectively. SCID-beige mice bearing BxPC3 xenografts were randomized 8 days post implant. […] Treatment for the MiaPaca2 study began on Feb. […] For the MiaPaca2 and AsPC1 studies, qd Compound (1) suspension or q3d gemcitabine treatment ended on day 37 post tumor cell implant, whereas for the BxPC3 study, qd Compound (1) suspension or q3d gemcitabine treatment ended on day 35 post tumor cell implant. For intermittent dosing of Compound (1) suspension in the MiaPaca2 study using the 7+/7−/7+ schedule, treatment ended on day 23, was reinitiated on day 31, and ended day 37. In the combination groups Compound (1) suspension was given sequentially with gemcitabine using the 7+/7−/7+ schedule so that Compound (1) was dosed daily only during the first and third weeks, whereas gemcitabine was dosed q3d during the second week only. Efficacy data was graphically represented as the mean tumor volume+standard error of the mean (SEM). Tumor volumes of treated groups were presented as percentages of tumor volumes of the control groups (% T/C), using the formula: 100×((T−T0)/(C−C0)), where T represented mean tumor volume of a treated group on a specific day during the experiment, T0 represented mean tumor volume of the same […] on the first day of treatment; C represented mean tumor volume of a control group on the specific day during the experiment, and C0 represented mean tumor volume of the same treated group on the first day of treatment. Tumor volume (in cubic millimeters) was calculated using the ellipsoid formula: (D×(d2))/2 where ‘D’ represents the large diameter of the tumor, and ‘d’ represents the small diameter. In some cases, tumor regression and/or percent change in tumor volume was calculated using the formula: ((T−T0)/T0)×100 where ‘T’ represents mean tumor volume of the treated group at a particular day, and ‘T0’ represents mean tumor volume of the same treated group at initiation of treatment. Statistical analysis was determined by the rank sum test and One Way Anova and a post-hoc Bonferroni t-test (SigmaStat, version 2.0, Jandel Scientific, San Francisco, Calif.). […]

[3] = mouse, in vivo, 10 mg/kg
Description: Treatment for the MiaPaca2 study began on Feb. 8, 2007 (day 17 post tumor implant), for AsPC1 on Mar. 23, 2007 (day 9 post tumor implant), and for the BxPC3 study on May 30, 2007 (day 8 post tumor implant). Oral vehicle or the Compound (1) suspension was dosed using a sterile 1 cc syringe and 18-gauge gavage needle (0.2 ml/animal) once daily (qd) for 21-28 days, or using an intermittent schedule (7 days on, 7 days off, 7 days on (7+/7−/7+), 7 days on, 7 days off (7+/7−), 3 days on, 4 days off (3+/4−), or 14 days on, 14 days off (14+/14−)). Gemcitabine was administered to the mice intraperitoneally (ip) q3d (every 3 days) using a 1 cc syringe and 26 gauge needle.
Weight loss was graphically represented as percent change in mean group body weight, using the formula: ((W−W0)/W0)×100, where ‘W’ represents mean body weight of the treated group at a particular day, and ‘W0’ represents mean body weight of the same treated group at initiation of treatment.

CC(C)(C(=O)NCC(F)(F)C(F)(F)F)C(=O)N[C@@H]1C(=O)Nc2ccccc2-c2ccccc21 [Compound (1), 2,2-Dimethyl-N—((S)-6-oxo-6,7-dihydro-5H-dibenzo[b,d]azepin-7-yl)-N′-(2,2,3,3,3-pentafluoro-propyl)-malonamide]
IC50 in cellular and cell-free assays [1]: low nanomolar range | % TGI ([2]; 1 mg/kg po qd × 21 days): 39% | % TGI ([2]; 3 mg/kg po qd × 21 days): 42% | % TGI ([2]; 10 mg/kg po qd × 21 days): 53% | % TGI ([2]; 10 mg/kg po, 7+/7−/7+): 51% | % TGI ([2]; 30 mg/kg po, 7+/7−/7+): 58% | % TGI ([2]; 60 mg/kg po, 7+/7−/7+): 48% | mice with >20% body weight loss deemed toxicity-related [3]: one
